Data: PubChem BioAssay (NCI)
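Cells were grown in 96-well plates and exposed to each compound for 48 hours at five concentrations; endpoints were interpolated linearly between bracketing concentrations, or set to the highest concentration if not reached. GI50: concentration for 50% inhibition of growth. TGI: total growth inhibition.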

The compounds below were run on 786-0 renal (assay: DTP human tumour cell line panel, 48 h).
Work on `Cc1csc2nc(-c3ccc(Cl)c([N+](=O)[O-])c3)c(/C=N/N=C(N)N)n12` yielded a TGI of 2.93 µM.
Work on `CN(CCCNC(=O)c1nn(-c2ccc(Cl)cc2Cl)c2c1Cc1ccccc1-2)CCCNC(=O)c1nn(-c2ccc(Cl)cc2Cl)c2c1Cc1ccccc1-2` yielded a TGI of 3.21 µM.
In the case of `Fc1ccccc1C1SCc2nc3cc4ccccc4cc3n21` (stereo unspecified), the TGI is reported as 51.5 µM.
With `CC(C)C1=CC23CCC4C(C)(C(=O)O)CCCC4(C)C2CC1C1C(=O)N(c2ccc(C(=O)O)cc2)C(=O)C13` (stereo unspecified) the TGI was > 100 µM.
For `COc1cccc(NC(=O)C(C#N)=C(SC)SC)c1`, the TGI was > 100 µM.
With `COc1ccc2cc(-c3c(-c4ccncc4)nc(-c4ccc(S(C)=O)cc4)n3C)ccc2c1` (stereo unspecified) the GI50 was 16.7 µM and the TGI was > 25 µM.

Each compound was assayed on A498 renal (assay: DTP human tumour cell line panel, 48 h).
Work on `Cc1csc2nc(-c3ccc(Cl)c([N+](=O)[O-])c3)c(/C=N/N=C(N)N)n12` yielded a TGI of 2.85 µM.
In the case of `CN(CCCNC(=O)c1nn(-c2ccc(Cl)cc2Cl)c2c1Cc1ccccc1-2)CCCNC(=O)c1nn(-c2ccc(Cl)cc2Cl)c2c1Cc1ccccc1-2`, the TGI is reported as 3.13 µM.
`COc1cccc(NC(=O)C(C#N)=C(SC)SC)c1` was tested, and the TGI was > 100 µM.
For `COc1ccc2cc(-c3c(-c4ccncc4)nc(-c4ccc(S(C)=O)cc4)n3C)ccc2c1` (stereo unspecified), the GI50 was > 7.37 µM and the TGI was > 25 µM.

These compounds were tested on A549 NSCLC (assay: DTP human tumour cell line panel, 48 h).
For `Cc1csc2nc(-c3ccc(Cl)c([N+](=O)[O-])c3)c(/C=N/N=C(N)N)n12`, the TGI was 3.54 µM.
For `CN(CCCNC(=O)c1nn(-c2ccc(Cl)cc2Cl)c2c1Cc1ccccc1-2)CCCNC(=O)c1nn(-c2ccc(Cl)cc2Cl)c2c1Cc1ccccc1-2`, the TGI was 3.64 µM.
With `Fc1ccccc1C1SCc2nc3cc4ccccc4cc3n21` (stereo unspecified) the TGI was > 100 µM.
With `CC(C)C1=CC23CCC4C(C)(C(=O)O)CCCC4(C)C2CC1C1C(=O)N(c2ccc(C(=O)O)cc2)C(=O)C13` (stereo unspecified) the TGI was > 100 µM.
For `COc1cccc(NC(=O)C(C#N)=C(SC)SC)c1`, the TGI was > 100 µM.
In the case of `COc1ccc2cc(-c3c(-c4ccncc4)nc(-c4ccc(S(C)=O)cc4)n3C)ccc2c1` (stereo unspecified), the GI50 is reported as > 25 µM and the TGI is reported as > 25 µM.

Each compound was assayed on ACHN renal (assay: DTP human tumour cell line panel, 48 h).
`Cc1csc2nc(-c3ccc(Cl)c([N+](=O)[O-])c3)c(/C=N/N=C(N)N)n12` gave a TGI of 2.94 µM.
In the case of `Fc1ccccc1C1SCc2nc3cc4ccccc4cc3n21` (stereo unspecified), the TGI is reported as > 100 µM.
`CC(C)C1=CC23CCC4C(C)(C(=O)O)CCCC4(C)C2CC1C1C(=O)N(c2ccc(C(=O)O)cc2)C(=O)C13` (stereo unspecified) was tested, and the TGI was > 100 µM.
For `COc1cccc(NC(=O)C(C#N)=C(SC)SC)c1`, the TGI was > 100 µM.
In the case of `COc1ccc2cc(-c3c(-c4ccncc4)nc(-c4ccc(S(C)=O)cc4)n3C)ccc2c1` (stereo unspecified), the GI50 is reported as 20.2 µM and the TGI is reported as > 25 µM.

What follows are compounds tested on BT-549 breast (assay: DTP human tumour cell line panel, 48 h).
Work on `CN(CCCNC(=O)c1nn(-c2ccc(Cl)cc2Cl)c2c1Cc1ccccc1-2)CCCNC(=O)c1nn(-c2ccc(Cl)cc2Cl)c2c1Cc1ccccc1-2` yielded a TGI of 3.18 µM.
With `Fc1ccccc1C1SCc2nc3cc4ccccc4cc3n21` (stereo unspecified) the TGI was > 100 µM.
With `CC(C)C1=CC23CCC4C(C)(C(=O)O)CCCC4(C)C2CC1C1C(=O)N(c2ccc(C(=O)O)cc2)C(=O)C13` (stereo unspecified) the TGI was > 100 µM.
`COc1cccc(NC(=O)C(C#N)=C(SC)SC)c1` was tested, and the TGI was > 100 µM.
In the case of `COc1ccc2cc(-c3c(-c4ccncc4)nc(-c4ccc(S(C)=O)cc4)n3C)ccc2c1` (stereo unspecified), the GI50 is reported as 21.1 µM and the TGI is reported as > 25 µM.

The compounds below were run on CAKI-1 renal (assay: DTP human tumour cell line panel, 48 h).
`CN(CCCNC(=O)c1nn(-c2ccc(Cl)cc2Cl)c2c1Cc1ccccc1-2)CCCNC(=O)c1nn(-c2ccc(Cl)cc2Cl)c2c1Cc1ccccc1-2` showed a TGI of 2.95 µM.
`Fc1ccccc1C1SCc2nc3cc4ccccc4cc3n21` (stereo unspecified) was tested, and the TGI was > 100 µM.
`CC(C)C1=CC23CCC4C(C)(C(=O)O)CCCC4(C)C2CC1C1C(=O)N(c2ccc(C(=O)O)cc2)C(=O)C13` (stereo unspecified) was tested, and the TGI was > 100 µM.
For `COc1cccc(NC(=O)C(C#N)=C(SC)SC)c1`, the TGI was > 100 µM.
For `COc1ccc2cc(-c3c(-c4ccncc4)nc(-c4ccc(S(C)=O)cc4)n3C)ccc2c1` (stereo unspecified), the GI50 was 19.4 µM and the TGI was > 25 µM.

These compounds were tested on CCRF-CEM leukemia (assay: DTP human tumour cell line panel, 48 h).
In the case of `CN(CCCNC(=O)c1nn(-c2ccc(Cl)cc2Cl)c2c1Cc1ccccc1-2)CCCNC(=O)c1nn(-c2ccc(Cl)cc2Cl)c2c1Cc1ccccc1-2`, the TGI is reported as 2.97 µM.
For `Fc1ccccc1C1SCc2nc3cc4ccccc4cc3n21` (stereo unspecified), the TGI was > 100 µM.
`COc1cccc(NC(=O)C(C#N)=C(SC)SC)c1` was tested, and the TGI was > 100 µM.
For `COc1ccc2cc(-c3c(-c4ccncc4)nc(-c4ccc(S(C)=O)cc4)n3C)ccc2c1` (stereo unspecified), the GI50 was > 21.6 µM and the TGI was > 25 µM.

The compounds below were run on COLO 205 colon (assay: DTP human tumour cell line panel, 48 h).
`Cc1csc2nc(-c3ccc(Cl)c([N+](=O)[O-])c3)c(/C=N/N=C(N)N)n12` was tested, and the TGI was 2.37 µM.
For `CN(CCCNC(=O)c1nn(-c2ccc(Cl)cc2Cl)c2c1Cc1ccccc1-2)CCCNC(=O)c1nn(-c2ccc(Cl)cc2Cl)c2c1Cc1ccccc1-2`, the TGI was 3.26 µM.
For `Fc1ccccc1C1SCc2nc3cc4ccccc4cc3n21` (stereo unspecified), the TGI was > 100 µM.
With `CC(C)C1=CC23CCC4C(C)(C(=O)O)CCCC4(C)C2CC1C1C(=O)N(c2ccc(C(=O)O)cc2)C(=O)C13` (stereo unspecified) the TGI was > 100 µM.
For `COc1cccc(NC(=O)C(C#N)=C(SC)SC)c1`, the TGI was > 100 µM.
In the case of `COc1ccc2cc(-c3c(-c4ccncc4)nc(-c4ccc(S(C)=O)cc4)n3C)ccc2c1` (stereo unspecified), the GI50 is reported as 17 µM and the TGI is reported as > 25 µM.

What follows are compounds tested on DU-145 prostate (assay: DTP human tumour cell line panel, 48 h).
In the case of `Cc1csc2nc(-c3ccc(Cl)c([N+](=O)[O-])c3)c(/C=N/N=C(N)N)n12`, the TGI is reported as 4.86 µM.
With `CN(CCCNC(=O)c1nn(-c2ccc(Cl)cc2Cl)c2c1Cc1ccccc1-2)CCCNC(=O)c1nn(-c2ccc(Cl)cc2Cl)c2c1Cc1ccccc1-2` the TGI was 3.18 µM.
`Fc1ccccc1C1SCc2nc3cc4ccccc4cc3n21` (stereo unspecified) was tested, and the TGI was > 100 µM.
`CC(C)C1=CC23CCC4C(C)(C(=O)O)CCCC4(C)C2CC1C1C(=O)N(c2ccc(C(=O)O)cc2)C(=O)C13` (stereo unspecified) was tested, and the TGI was > 100 µM.
`COc1ccc2cc(-c3c(-c4ccncc4)nc(-c4ccc(S(C)=O)cc4)n3C)ccc2c1` (stereo unspecified) was tested, and the GI50 was > 25 µM and the TGI was > 25 µM.

The compounds below were run on EKVX NSCLC (assay: DTP human tumour cell line panel, 48 h).
`Cc1csc2nc(-c3ccc(Cl)c([N+](=O)[O-])c3)c(/C=N/N=C(N)N)n12` showed a TGI of 2.93 µM.
Compound `CN(CCCNC(=O)c1nn(-c2ccc(Cl)cc2Cl)c2c1Cc1ccccc1-2)CCCNC(=O)c1nn(-c2ccc(Cl)cc2Cl)c2c1Cc1ccccc1-2` has a TGI of 3.26 µM.
With `Fc1ccccc1C1SCc2nc3cc4ccccc4cc3n21` (stereo unspecified) the TGI was > 100 µM.
With `CC(C)C1=CC23CCC4C(C)(C(=O)O)CCCC4(C)C2CC1C1C(=O)N(c2ccc(C(=O)O)cc2)C(=O)C13` (stereo unspecified) the TGI was > 100 µM.
In the case of `COc1cccc(NC(=O)C(C#N)=C(SC)SC)c1`, the TGI is reported as > 100 µM.
In the case of `COc1ccc2cc(-c3c(-c4ccncc4)nc(-c4ccc(S(C)=O)cc4)n3C)ccc2c1` (stereo unspecified), the GI50 is reported as 15.6 µM and the TGI is reported as > 25 µM.

What follows are compounds tested on HCC-2998 colon (assay: DTP human tumour cell line panel, 48 h).
With `CN(CCCNC(=O)c1nn(-c2ccc(Cl)cc2Cl)c2c1Cc1ccccc1-2)CCCNC(=O)c1nn(-c2ccc(Cl)cc2Cl)c2c1Cc1ccccc1-2` the TGI was 3 µM.
In the case of `Fc1ccccc1C1SCc2nc3cc4ccccc4cc3n21` (stereo unspecified), the TGI is reported as > 100 µM.
In the case of `CC(C)C1=CC23CCC4C(C)(C(=O)O)CCCC4(C)C2CC1C1C(=O)N(c2ccc(C(=O)O)cc2)C(=O)C13` (stereo unspecified), the TGI is reported as > 100 µM.
With `COc1cccc(NC(=O)C(C#N)=C(SC)SC)c1` the TGI was > 100 µM.
With `COc1ccc2cc(-c3c(-c4ccncc4)nc(-c4ccc(S(C)=O)cc4)n3C)ccc2c1` (stereo unspecified) the GI50 was 25 µM and the TGI was > 25 µM.

What follows are compounds tested on HCT-116 colon (assay: DTP human tumour cell line panel, 48 h).
`Cc1csc2nc(-c3ccc(Cl)c([N+](=O)[O-])c3)c(/C=N/N=C(N)N)n12` gave a TGI of 3.97 µM.
`CN(CCCNC(=O)c1nn(-c2ccc(Cl)cc2Cl)c2c1Cc1ccccc1-2)CCCNC(=O)c1nn(-c2ccc(Cl)cc2Cl)c2c1Cc1ccccc1-2` gave a TGI of 3.15 µM.
`Fc1ccccc1C1SCc2nc3cc4ccccc4cc3n21` (stereo unspecified) was tested, and the TGI was > 100 µM.
For `CC(C)C1=CC23CCC4C(C)(C(=O)O)CCCC4(C)C2CC1C1C(=O)N(c2ccc(C(=O)O)cc2)C(=O)C13` (stereo unspecified), the TGI was > 100 µM.
`COc1cccc(NC(=O)C(C#N)=C(SC)SC)c1` was tested, and the TGI was > 100 µM.
With `COc1ccc2cc(-c3c(-c4ccncc4)nc(-c4ccc(S(C)=O)cc4)n3C)ccc2c1` (stereo unspecified) the GI50 was 19.1 µM and the TGI was > 25 µM.

The compounds below were run on HCT-15 colon (assay: DTP human tumour cell line panel, 48 h).
With `Cc1csc2nc(-c3ccc(Cl)c([N+](=O)[O-])c3)c(/C=N/N=C(N)N)n12` the TGI was 3.02 µM.
Compound `CN(CCCNC(=O)c1nn(-c2ccc(Cl)cc2Cl)c2c1Cc1ccccc1-2)CCCNC(=O)c1nn(-c2ccc(Cl)cc2Cl)c2c1Cc1ccccc1-2` has a TGI of 3.38 µM.
With `Fc1ccccc1C1SCc2nc3cc4ccccc4cc3n21` (stereo unspecified) the TGI was > 100 µM.
`CC(C)C1=CC23CCC4C(C)(C(=O)O)CCCC4(C)C2CC1C1C(=O)N(c2ccc(C(=O)O)cc2)C(=O)C13` (stereo unspecified) was tested, and the TGI was > 100 µM.
`COc1cccc(NC(=O)C(C#N)=C(SC)SC)c1` was tested, and the TGI was > 100 µM.
In the case of `COc1ccc2cc(-c3c(-c4ccncc4)nc(-c4ccc(S(C)=O)cc4)n3C)ccc2c1` (stereo unspecified), the GI50 is reported as 9.57 µM and the TGI is reported as > 25 µM.

Each compound was assayed on HL-60(TB) leukemia (assay: DTP human tumour cell line panel, 48 h).
`CN(CCCNC(=O)c1nn(-c2ccc(Cl)cc2Cl)c2c1Cc1ccccc1-2)CCCNC(=O)c1nn(-c2ccc(Cl)cc2Cl)c2c1Cc1ccccc1-2` showed a TGI of 3.14 µM.
With `Fc1ccccc1C1SCc2nc3cc4ccccc4cc3n21` (stereo unspecified) the TGI was > 100 µM.
With `CC(C)C1=CC23CCC4C(C)(C(=O)O)CCCC4(C)C2CC1C1C(=O)N(c2ccc(C(=O)O)cc2)C(=O)C13` (stereo unspecified) the TGI was > 100 µM.
In the case of `COc1ccc2cc(-c3c(-c4ccncc4)nc(-c4ccc(S(C)=O)cc4)n3C)ccc2c1` (stereo unspecified), the GI50 is reported as 18.3 µM and the TGI is reported as > 25 µM.

Each compound was assayed on HOP-62 NSCLC (assay: DTP human tumour cell line panel, 48 h).
Compound `Cc1csc2nc(-c3ccc(Cl)c([N+](=O)[O-])c3)c(/C=N/N=C(N)N)n12` has a TGI of 3.41 µM.
For `CN(CCCNC(=O)c1nn(-c2ccc(Cl)cc2Cl)c2c1Cc1ccccc1-2)CCCNC(=O)c1nn(-c2ccc(Cl)cc2Cl)c2c1Cc1ccccc1-2`, the TGI was 3.09 µM.
For `Fc1ccccc1C1SCc2nc3cc4ccccc4cc3n21` (stereo unspecified), the TGI was > 100 µM.
For `CC(C)C1=CC23CCC4C(C)(C(=O)O)CCCC4(C)C2CC1C1C(=O)N(c2ccc(C(=O)O)cc2)C(=O)C13` (stereo unspecified), the TGI was > 100 µM.
